Consider 18 compounds from ChEMBL document CHEMBL4392824, “Design, synthesis and bioevaluation of 3-oxo-6-aryl-2,3-dihydropyridazine-4-carbohydrazide derivatives as novel xanthine oxidase inhibitors” (Bioorg Med Chem, 2019).

Data set [1] concerns the target T1, Xanthine dehydrogenase/oxidase (Bos taurus, UniProt P80457). The data set is described as follows: Inhibition of bovine xanthine oxidase assessed as reduction in uric acid formation at 10 uM preincubated for 5 mins followed by xanthine addition and measured after 20 mins by spectrophotometry. To be noted: cattle.
Data set [2] concerns the target T1, Xanthine dehydrogenase/oxidase. Kind of data set: Inhibition of bovine xanthine oxidase assessed as reduction in uric acid formation preincubated for 5 mins followed by xanthine addition and measured after 20 mins by spectrophotometry.
The target is the same in data set [3]. The data set is described as follows: Mixed type inhibition of bovine xanthine oxidase assessed as reduction in uric acid formation at 0.5 to 2 uM preincubated for 5 mins followed by xanthine addition and measured after 20 mins by spectrophotometry based Lineweaver-Burk plot analysis. The note with it: cattle.

T1 sequence (P80457 whole entry): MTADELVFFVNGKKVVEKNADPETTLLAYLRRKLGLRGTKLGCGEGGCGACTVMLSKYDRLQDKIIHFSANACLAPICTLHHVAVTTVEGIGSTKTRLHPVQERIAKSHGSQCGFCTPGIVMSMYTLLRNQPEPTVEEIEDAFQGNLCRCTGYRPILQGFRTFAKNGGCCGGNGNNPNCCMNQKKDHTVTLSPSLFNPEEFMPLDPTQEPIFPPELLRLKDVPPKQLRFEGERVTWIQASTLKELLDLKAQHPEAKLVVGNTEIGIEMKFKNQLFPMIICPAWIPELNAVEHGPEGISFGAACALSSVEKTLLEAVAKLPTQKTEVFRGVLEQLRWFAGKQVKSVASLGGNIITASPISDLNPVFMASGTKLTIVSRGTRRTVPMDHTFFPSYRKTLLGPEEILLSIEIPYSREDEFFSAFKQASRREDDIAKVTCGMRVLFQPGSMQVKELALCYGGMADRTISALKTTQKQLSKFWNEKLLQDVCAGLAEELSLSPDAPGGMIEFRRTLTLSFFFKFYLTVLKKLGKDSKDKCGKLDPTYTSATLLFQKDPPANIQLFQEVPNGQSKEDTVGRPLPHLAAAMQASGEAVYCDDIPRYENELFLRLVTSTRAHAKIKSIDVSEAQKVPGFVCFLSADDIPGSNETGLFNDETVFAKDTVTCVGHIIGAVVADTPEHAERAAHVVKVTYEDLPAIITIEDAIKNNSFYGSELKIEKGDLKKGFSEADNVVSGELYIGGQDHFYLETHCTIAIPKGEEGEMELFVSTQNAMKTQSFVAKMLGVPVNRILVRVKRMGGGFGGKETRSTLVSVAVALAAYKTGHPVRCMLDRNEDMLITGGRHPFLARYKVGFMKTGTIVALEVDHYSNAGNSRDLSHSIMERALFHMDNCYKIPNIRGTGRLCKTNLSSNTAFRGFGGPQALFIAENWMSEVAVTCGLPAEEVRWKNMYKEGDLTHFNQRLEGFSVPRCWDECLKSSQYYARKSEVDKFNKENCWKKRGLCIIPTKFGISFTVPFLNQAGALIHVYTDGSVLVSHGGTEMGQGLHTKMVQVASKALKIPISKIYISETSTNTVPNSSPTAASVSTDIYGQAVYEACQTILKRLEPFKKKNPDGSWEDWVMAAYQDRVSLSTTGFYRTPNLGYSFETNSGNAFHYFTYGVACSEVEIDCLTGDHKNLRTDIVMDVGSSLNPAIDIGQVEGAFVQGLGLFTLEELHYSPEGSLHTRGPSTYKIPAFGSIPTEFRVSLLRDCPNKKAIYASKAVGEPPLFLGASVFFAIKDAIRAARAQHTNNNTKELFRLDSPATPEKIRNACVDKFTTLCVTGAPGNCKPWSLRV

The term inhibition denotes the relative decrease from the control value, in per cent. As usually defined, the IC50 is the concentration at which inhibition is half-maximal. On to `NNC(=O)c1cc(-c2ccccc2)n[nH]c1=O`, for which the inhibition at 10 µM in data set [1] is below 50%. In data set [2], the IC50 result is “Not Active”. Regarding `CC(C)CCOc1ccc(-c2cc(C(=O)O)c(=O)[nH]n2)cc1C#N`, the inhibition at 10 µM in data set [1] is below 50%. Also, the IC50 result in data set [2] is given as “Not Active”. Regarding `CCOc1ccc(-c2cc(C(=O)NN)c(=O)[nH]n2)cc1C#N`, the IC50 in data set [2] (read-out: IC50) came out at 2.54 µM. With `CC(C)COc1ccc(-c2cc(C(=O)O)c(=O)[nH]n2)cc1C#N`, the inhibition at 10 µM in data set [1] is below 50%. Further, the IC50 entry in data set [2] is “Not Active”. For the compound `CC(C)Oc1ccc(-c2cc(C(=O)NN)c(=O)[nH]n2)cc1`, the inhibition at 10 µM in data set [1] is below 50%. In addition, the IC50 entry in data set [2] is listed as “Not Active”.

Turning to `CCCCOc1ccc(-c2cc(C(=O)NN)c(=O)[nH]n2)cc1C#N`, in data set [2] (read-out: IC50), the IC50 worked out at 5.24 µM. For the compound `NNC(=O)c1cc(-c2ccc([N+](=O)[O-])cc2)n[nH]c1=O`, the inhibition at 10 µM in data set [1] is below 50%. Moreover, the IC50 entry in data set [2] is “Not Active”.

For `CC(C)Oc1ccc(-c2cc(C(=O)NN)c(=O)[nH]n2)cc1C#N`, in data set [2] (read-out: IC50), the IC50 worked out at 1.03 µM. Also, the “inhibition (INH)” value in data set [3] is recorded as “Active”. Take `CC(C)CCOc1ccc(-c2cc(C(=O)NN)c(=O)[nH]n2)cc1C#N`: the IC50 in data set [2] (read-out: IC50) was 4.5 µM. For `NNC(=O)c1cc(-c2cccc([N+](=O)[O-])c2)n[nH]c1=O`, the inhibition at 10 µM in data set [1] is below 50%. Moreover, the IC50 entry in data set [2] is on record as “Not Active”.

With `CC(C)COc1ccc(-c2cc(C(=O)NN)c(=O)[nH]n2)cc1`, in data set [1], the inhibition at 10 µM was below 50%. Besides, the IC50 entry in data set [2] is on record as “Not Active”. In the case of `CCCOc1ccc(-c2cc(C(=O)NN)c(=O)[nH]n2)cc1C#N`, the IC50 in data set [2] (read-out: IC50) was 3.1 µM. The same measure, in the same setting: then `CC(C)CCOc1ccc(-c2cc(C(=O)NN)c(=O)[nH]n2)cc1[N+](=O)[O-]`, with 6.02 µM; and `CC(C)Oc1ccc(-c2cc(C(=O)NN)c(=O)[nH]n2)cc1[N+](=O)[O-]`, with 1.92 µM; and `CCCCCOc1ccc(-c2cc(C(=O)NN)c(=O)[nH]n2)cc1C#N`, with 5.89 µM. The same measure, in the same setting: then `CC(C)COc1ccc(-c2cc(C(=O)NN)c(=O)[nH]n2)cc1[N+](=O)[O-]`, with 3.65 µM.

Consider `CC(C)Oc1ccc(-c2cc(C(=O)O)c(=O)[nH]n2)cc1[N+](=O)[O-]`, for which the inhibition at 10 µM in data set [1] is below 50%. Besides, the IC50 result in data set [2] is on record as “Not Active”.

Regarding `CC(C)COc1ccc(-c2cc(C(=O)NN)c(=O)[nH]n2)cc1C#N`, the IC50 in data set [2] (read-out: IC50) was found to be 2.97 µM.
